According to patent US8551999B2, “Heterocyclic compound and pharmaceutical composition thereof” (Otsuka Pharmaceutical Co., Ltd., priority 2007, dated 2013):

melting point | SMILES
235 to 238 °C (dec.) | Br.CCOc1ccc(CN2CCN(C(=O)c3cc4cc(Oc5ccc(NC(=O)c6ccc(Cl)c(Cl)c6)cn5)ccc4n3C)CC2)cc1 [Example 360, 3,4-Dichloro-N-(6-{2-[4-(4-ethoxybenzyl)piperazine-1-carbonyl]-1-methyl-1H-indol-5-yloxy}pyridin-3-yl)benzamide hydrobromide]
168 to 170 °C | CCOc1ccc(CN2CCN(C(=O)c3cc4cc(Oc5ccc(N(C)C(=O)c6ccc(Cl)c(Cl)c6)cn5)ccc4n3C)CC2)cc1.CS(=O)(=O)O [Example 361, 3,4-Dichloro-N-(6-{2-[4-(4-ethoxybenzyl)piperazine-1-carbonyl]-1-methyl-1H-indol-5-yloxy}pyridin-3-yl)-N-methylbenzamide methanesulfonate]
228 to 232 °C (dec.) | Br.Br.Cc1cc(Oc2ccc3c(c2)cc(C(=O)N2CCN(Cc4ccncc4)CC2)n3C)ncc1NC(=O)c1ccc(C(F)(F)F)cc1 [Example 362, N-{4-Methyl-6-[1-methyl-2-(4-pyridin-4-ylmethylpiperazine-1-carbonyl)-1H-indol-5-yloxy]pyridin-3-yl}-4-trifluoromethyl-benzamide dihydrobromide]
231 to 234 °C | Br.CCOc1ccc(CN2CCN(C(=O)c3cc4cc(Oc5ccc(NC(=O)c6ccc(C(F)(F)F)cc6)cn5)ccc4n3C)CC2)cc1 [Example 363, N-(6-{2-[4-(4-Ethoxybenzyl)piperazine-1-carbonyl]-1-methyl-1H-indol-5-yloxy}pyridin-3-yl)-4-trifluoromethylbenzamide hydrobromide]
197 to 199 °C | Br.CCOc1ccc(CN2CCN(C(=O)c3cc4cc(Oc5cc(C)c(NC(=O)c6ccc(Cl)c(Cl)c6)cn5)ccc4n3C)CC2)cc1 [Example 364, 3,4-Dichloro-N-(6-{2-[4-(4-ethoxybenzyl)piperazine-1-carbonyl]-1-methyl-1H-indol-5-yloxy}-4-methylpyridin-3-yl)benzamide hydrobromide]
163 to 166 °C | Br.CCOc1ccc(CN2CCN(C(=O)c3cc4cc(Oc5cc(C)c(N(C)C(=O)c6ccc(C(F)(F)F)cc6)cn5)ccc4n3C)CC2)cc1 [Example 365, N-(6-{2-[4-(4-Ethoxybenzyl)piperazine-1-carbonyl]-1-methyl-1H-indol-5-yloxy}-4-methylpyridin-3-yl)-N-methyl-4-trifluoromethyl-benzamide hydrobromide]
201 to 204 °C | Br.CCOc1ccc(CN2CCN(C(=O)c3cc4cc(Oc5cc(C)c(N(C)C(=O)c6ccc(Cl)c(Cl)c6)cn5)ccc4n3C)CC2)cc1 [Example 366, 3,4-Dichloro-N-(6-{2-[4-(4-ethoxybenzyl)piperazine-1-carbonyl]-1-methyl-1H-indol-5-yloxy}-4-methylpyridin-3-yl)-N-methylbenzamide hydrobromide]
249 to 252 °C (dec.) | Br.CCCOc1ccc(CN2CCN(C(=O)c3cc4cc(Oc5ccc(NC(=O)c6ccc(Cl)c(Cl)c6)cn5)ccc4n3C)CC2)cc1 [Example 369, 3,4-Dichloro-N-(6-{1-methyl-2-[4-(4-propoxybenzyl)piperazine-1-carbonyl]-1H-indol-5-yloxy}pyridin-3-yl)benzamide hydrobromide]
163 to 164 °C | CCCOc1ccc(CN2CCN(C(=O)c3cc4cc(Oc5ccc(N(C)C(=O)c6ccc(Cl)c(Cl)c6)cn5)ccc4n3C)CC2)cc1.O=C(O)/C=C\C(=O)O [Example 370, 3,4-Dichloro-N-methyl-N-(6-{1-methyl-2-[4-(4-propoxybenzyl)-piperazine-1-carbonyl]-1H-indol-5-yloxy}pyridin-3-yl)benzamide maleate]
131 to 132 °C | CCOc1ccc(CN2CCN(C(=O)c3cc4cc(Oc5ccc(N(C)C(=O)c6ccc(Cl)c(Cl)c6)c(C)n5)ccc4n3C)CC2)cc1.O=C(O)/C=C\C(=O)O [Example 372, 3,4-Dichloro-N-(6-{2-[4-(4-ethoxybenzyl)piperazine-1-carbonyl]-1-methyl-1H-indol-5-yloxy}-2-methylpyridin-3-yl)-N-methylbenzamide maleate]
225 to 227 °C | Br.CCOc1cccc(CN2CCN(C(=O)c3cc4cc(Oc5ccc(NC(=O)c6ccc(Cl)c(Cl)c6)cn5)ccc4n3C)CC2)c1 [Example 373, 3,4-Dichloro-N-(6-{2-[4-(3-ethoxybenzyl)piperazine-1-carbonyl]-1-methyl-1H-indol-5-yloxy}pyridin-3-yl)benzamide hydrobromide]
99 to 100 °C | CCOc1cccc(CN2CCN(C(=O)c3cc4cc(Oc5ccc(N(C)C(=O)c6ccc(Cl)c(Cl)c6)cn5)ccc4n3C)CC2)c1.O=C(O)/C=C\C(=O)O [Example 374, 3,4-Dichloro-N-(6-{2-[4-(3-ethoxybenzyl)piperazine-1-carbonyl]-1-methyl-1H-indol-5-yloxy}pyridin-3-yl)-N-methylbenzamide maleate]
244 to 249 °C (dec.) | Br.COCc1ccc(CN2CCN(C(=O)c3cc4cc(Oc5ccc(NC(=O)c6ccc(Cl)c(Cl)c6)cn5)ccc4n3C)CC2)cc1 [Example 375, 3,4-Dichloro-N-(6-{2-[4-(4-methoxymethylbenzyl)piperazine-1-carbonyl]-1-methyl-1H-indol-5-yloxy}pyridin-3-yl)benzamide hydrobromide]
100 to 101 °C | COCc1ccc(CN2CCN(C(=O)c3cc4cc(Oc5ccc(N(C)C(=O)c6ccc(Cl)c(Cl)c6)cn5)ccc4n3C)CC2)cc1.O=C(O)/C=C\C(=O)O [Example 376, 3,4-Dichloro-N-(6-{2-[4-(4-methoxymethylbenzyl)piperazine-1-carbonyl]-1-methyl-1H-indol-5-yloxy}pyridin-3-yl)-N-methyl-benzamide maleate]
218 to 220 °C | Br.Br.CCOc1ccc(CN2CCN(C(=O)c3cc4cc(Oc5ccc(NC(=O)c6ccc(Cl)c(Cl)c6)cn5)ccc4n3C)CC2)nc1 [Example 378, 3,4-Dichloro-N-(6-{2-[4-(5-ethoxypyridin-2-ylmethyl)piperazine-1-carbonyl]-1-methyl-1H-indol-5-yloxy}pyridin-3-yl)benzamide dihydrobromide]
160 to 161 °C | COc1ccc(CN2CCN(C(=O)c3cc4cc(Oc5ncc(N(C)C(=O)c6ccc(C(F)(F)F)cc6)cn5)ccc4n3C)CC2)cc1.O=C(O)/C=C\C(=O)O [Example 381, N-(2-{2-[4-(4-Methoxybenzyl)piperazine-1-carbonyl]-1-methyl-1H-indol-5-yloxy}pyrimidin-5-yl)-N-methyl-4-trifluoromethylbenzamide maleate]
181 to 182 °C | Cn1c(C(=O)N2CCN(Cc3ccccn3)CC2)cc2cc(Oc3ncc(NC(=O)c4ccc(C(F)(F)F)cc4)cn3)ccc21 [Example 382, N-{2-[1-Methyl-2-(4-pyridin-2-ylmethylpiperazine-1-carbonyl)-1H-indol-5-yloxy]pyrimidin-5-yl}-4-trifluoromethylbenzamide]
154 to 156 °C | CN(C(=O)c1ccc(C(F)(F)F)cc1)c1cnc(Oc2ccc3c(c2)cc(C(=O)N2CCN(Cc4ccc(C#N)cc4)CC2)n3C)nc1.O=C(O)/C=C\C(=O)O [Example 383, N-(2-{2-[4-(4-Cyanobenzyl)piperazine-1-carbonyl]-1-methyl-1H-indol-5-yloxy}pyrimidin-5-yl)-N-methyl-4-trifluoromethylbenzamide maleate]
156 to 157 °C | CCOc1ccc(CN2CCN(C(=O)c3cc4cc(Oc5ncc(NC(=O)c6ccc(Cl)c(Cl)c6)cn5)ccc4n3C)CC2)cc1 [Example 384, 3,4-Dichloro-N-(2-{2-[4-(4-ethoxybenzyl)piperazine-1-carbonyl]-1-methyl-1H-indol-5-yloxy}pyrimidin-5-yl)benzamide]
161 to 163 °C | Cn1c(C(=O)N2CCN(Cc3ccccn3)CC2)cc2cc(Oc3ncc(NC(=O)c4ccc(Cl)c(Cl)c4)cn3)ccc21 [Example 385, 3,4-Dichloro-N-{2-[1-methyl-2-(4-pyridin-2-ylmethylpiperazine-1-carbonyl)-1H-indol-5-yloxy]pyrimidin-5-yl}benzamide]
216 to 219 °C | Br.Br.Cn1c(C(=O)N2CCN(Cc3ccc(C#N)cn3)CC2)cc2cc(Oc3ccc(NC(=O)c4ccc(Cl)c(Cl)c4)cn3)ccc21 [Example 386, 3,4-Dichloro-N-(6-{2-[4-(5-cyanopyridin-2-ylmethyl)piperazine-1-carbonyl]-1-methyl-1H-indol-5-yloxy}pyridin-3-yl)benzamide dihydrobromide]
143 to 144 °C | COc1ccc(CN2CCN(C(=O)c3cc4cc(Oc5ccc(N(C)C(=O)c6ccc(C(F)(F)F)cc6)cn5)ccc4n3C)CC2)nc1.O=C(O)/C=C\C(=O)O [Example 387, N-(6-{2-[4-(5-Methoxypyridin-2-ylmethyl)piperazine-1-carbonyl]-1-methyl-1H-indol-5-yloxy}pyridin-3-yl)-N-methyl-4-trifluoromethyl-benzamide maleate]
223 to 225 °C | Br.Br.COc1ccc(CN2CCN(C(=O)c3cc4cc(Oc5ccc(NC(=O)c6ccc(Cl)c(Cl)c6)cn5)ccc4n3C)CC2)nc1 [Example 388, 3,4-Dichloro-N-(6-{2-[4-(5-methoxypyridin-2-ylmethyl)piperazine-1-carbonyl]-1-methyl-1H-indol-5-yloxy}pyridin-3-yl)benzamide dihydrobromide]
155 to 156 °C | COc1ccc(CN2CCN(C(=O)c3cc4cc(Oc5ccc(N(C)C(=O)c6ccc(Cl)c(Cl)c6)cn5)ccc4n3C)CC2)nc1.O=C(O)/C=C\C(=O)O [Example 389, 3,4-Dichloro-N-(6-{2-[4-(5-methoxypyridin-2-ylmethyl)piperazine-1-carbonyl]-1-methyl-1H-indol-5-yloxy}pyridin-3-yl)-N-methyl-benzamide maleate]
239 to 241 °C | Br.CCc1ccc(CN2CCN(C(=O)c3cc4cc(Oc5ccc(NC(=O)c6ccc(C(F)(F)F)cc6)cn5)ccc4n3C)CC2)cc1 [Example 390, N-(6-{2-[4-(4-Ethylbenzyl)piperazine-1-carbonyl]-1-methyl-1H-indol-5-yloxy}pyridin-3-yl)-4-trifluoromethylbenzamide hydrobromide]
128 to 130 °C | C[C@@H]1CN(Cc2ccccn2)CCN1C(=O)c1cc2cc(Oc3ccc(NC(=O)c4ccc(C(F)(F)F)cc4)cn3)ccc2n1C.O=C(O)C(=O)O.O=C(O)C(=O)O [Example 392, N-{6-[1-Methyl-2-((R)-2-methyl-4-pyridin-2-ylmethylpiperazine-1-carbonyl)-1H-indol-5-yloxy]pyridin-3-yl}-4-trifluoromethyl-benzamide dioxalate]
